As a reminder, the GI50 is the concentration giving 50% growth inhibition.

12 compounds from patent US10342796B2, “Acrylanilide derivative, preparation method, and applications thereof in pharmacy” (Ancureall Pharmaceutical (Shanghai) Co., Ltd., priority 2015, dated 2019) can be followed below.

SMILES strings stand for the structures. Read-outs that look alike come from different tables or passages of the source.

The subject of experiment [1] is HER2/ErbB2 amplified cell line N87. Nature of the experiment: In vivo tumor growth inhibition, xenograft. More on the design: species or system Bab/c nude mice. The conditions noted are these: Mus musculus, po, 456 h, 25 mg/kg intragastric once daily, day 19, read-out: TGI (%). From the text: (§1) Tumor xenograft models of immunodeficient mice are an effective tool to test the antitumor activity of the compound in vivo. Generally, the effectiveness of human tumor cell xenograft is positively correlated with the clinical treatment of human tumor. Bab/c immunodeficient mouse is one of the most commonly used xenograft animals with human tumor cells. In order to test whether the present compounds can inhibit the in vivo growth of the tumor cells expressing EGFR mutantion or HER2/ErbB2 overexpression, H1975, PC-9 and NCI-N87 cell lines were used in the experiments. When H1975, PC-9 and NCI-N87 cells were in growth logarithmic phase, they were digested with pancreatin. An appropriate amount of 1×RPMI1640 culture medium (serum-free) was added to stop digestion. The cells were collected to a 50 ml centrifuge tube (Corning), and centrifuged at 1700 rm for 3 min. The supernatant was discard, then the cells were suspended with 1×RPMI1640 culture medium and count the number. […] cells/mL was prepared and then placed on ice. 5˜10×10^6 (0.2 ml) cells were inoculated subcutaneously on the right side of the back of 6˜8 week old female Bab/c nude mice (about 20 g in weight). When the tumor average volume growed to 100˜200 mm^3, the mice were randomly divide into groups (3-6 mice per group), and marked by ear pierced tags and weighted. The test compounds and the reference compound (with a purity over 99% and individual impurity not higher than 0.2%) were formulated to emulsion suspension with CM (30% polyethylene glycol 400, 0.5% Tween-80 and 2.5% propylene glycol) respectively. Intragastric administration was continued once daily at a dosage of 25 mg/kg (0.1 ml/10 g mouse). The tumor was measured 3 times per week. When the average volume of the tumor in CM control group was up to 1500 mm^3 or after administration for 30 days, the experiment was ended.
(§2) The volume of tumor (V) was calculated as V=½*a*b^2 (a represents length of tumors, b represents width of tumors). Tumor growth inhibition (TGI) was calculated as: TGI (%)=100−(VT−VT0)/(VC−VC0)*100%; where VT0 and VT are the tumor volumes of the beginning and finish days of dosed groups; and VC0 and VC are the tumor volumes of the beginning and finish days for the control group, respectively.

Experiment [2] concerns A375 (EGFR wt, BRAF V600E). As to the kind of experiment: Growth inhibition GI50 in vitro (CCK8/MTT, 72 h). In kind it is cell-based. The conditions noted are these: Homo sapiens, A-375. From the text: EGFR wild type cell lines: human epidermal cancer cell line A431 (EGFR WT, amplification and high expression, from Shanghai Cell Bank of Chinese Academy of Sciences and ATCC), NSCLC cell lines NCI-H460 (EGFR WT, Kras G61H and PI3KCA E545K mutants, ATCC) and NCI-H1299 (EGFR WT, ATCC), melanoma cell line A375 (EGFR WT and BRAF V600E mutant, from Shanghai Cell Bank of Chinese Academy of Sciences, ATCC), human lung cancer cell line NCI-H292 (EGFR WT, from human lung mucoepidermoid carcinoma/lymphatic metastasis, purchased from Shanghai Cell Bank of Chinese Academy of Sciences) were cultured with 1×RPMI1640 complete medium which was supplement with 10% FBS. NSCLC cell line A549 (EGFR WT and Kras G12S mutant, from Shanghai Cell Bank of Chinese Academy of Sciences) was cultured with 1×Ham'S F12K complete medium which was supplement with 10% FBS, 1% double-antibiotics and 2 mM glutamine.
(§3) The suspension cells were collected by centrifugation. The supernatant was discard and the cell pellet was resuspended and counted. Different cell concentrations (5˜10×10^4 cells/mL) were prepared according to the growth cycle of each cell line and then seeded on a 96-well plate (Corning), 100 μL/well. The cells were incubated over night at 37° C., 5% CO2. The compounds were added to the cells on the second day with 2 wells in parallel. The final concentration of organic solvent shall not exceed 1%. The cells were continually incubated for 72 h, and then subjected to MTT assay.
(§4) The present compounds and the reference compounds were dissolved with DMSO (Sigma), respectively. […] The storage concentration of compounds was 10 mM and kept at −20° C. They were diluted by 2 times or 10 times with serial dilution before using.
(§5) Dojindo CCK8 reagent kit was used as MTT assay. […] FC meter was used as microplate reader.
(§6) Adherent cell culture medium was discard and immediately replaced with fresh prepared medium which contains 10% CCK8 reagent (100 μL/well). For the suspension cells, CCK8 was directly added to 10% of the final concentration. The cells were continually incubated for 1˜4 h. When the color of control wells turned to dark yellow, the absorption value was measured at OD450 nm. The cell growth rate was calculated according to the following formula: cell growth rate (%)=100*(T−T0)/(C−T0), T=optical density of drug treatment cell well—optical density of blank control well; T0=optical density of cell well before drug treatment—optical density of blank control well; C=optical density of cell well of solvent control group—optical density of blank control well. […] The experiment was independently repeated 1˜3 times, and subject to biological statistical analysis.
(§7) Growth inhibition assay was conducted in the cell lines shown Table 14 with the different oncogene mutations. Each compound started at 1000 nM as an initial concentration and was diluted by 2 times with serial dilution to 0.03 nM.

The subject of experiment [3] is SH-SY5Y (ALK F1174L). Nature of the experiment: Growth inhibition GI50 in vitro (CCK8/MTT, 72 h). In kind it is cell-based. Conditions: Homo sapiens, EGFR wt. The method, then: Neuroblastoma cell line SH-SY5Y (ALK F1174L positive) (Shanghai Cell Bank of Chinese Academy of Sciences) was cultured with MEM complete medium (supplement with 10% FBS, 1% NEAA, 1% double-antibiotics and 1 mM of sodium pyruvate).
as §3, §4, §5, §6, §7

Experiment [4] concerns HEL (Jak2 V167F). Nature of the experiment: Growth inhibition GI50 in vitro (CCK8/MTT, 72 h). Type of experiment: cell-based. The conditions noted are these: Homo sapiens. The method, then:
Jak2 is a kind of non-receptor PTK (Janus Kinase 2) with great significance in cell growth, differentiation and transformation. Jak2 gene mutation often leads to bone marrow hyperplasia and transformation. Especially Jak2 V167F mutation is common for clinical patients. Human erythroleukemia cell line HEL expressing Jak2 V167F was cultured with 1×RPMI1640 complete medium (supplement with 10% FBS).
as §3, §4, §5, §6, §7

Experiment [5] relates to Ramos (BTK). Nature of the experiment: Growth inhibition GI50 in vitro (CCK8/MTT, 72 h). Type of experiment: cell-based, human. Conditions: for GI50: Homo sapiens, Ramos, BTK; for inhibition effects: BTK+ Ramos cells. On the procedure: RAMOS is human B lymphocytic leukemia cell line positively expressing BTK. It was cultured with 1×RPMI1640 complete medium (supplement with 10% FBS).
as §3, §4, §5, §6, §7

Experiment [6] concerns H1975 tumor cells. Nature of the experiment: In vivo tumor growth inhibition, xenograft. More on the design: species or system Bab/c nude mice. Conditions: Mus musculus, NCI-H1975, po, 456 h; 25 mg/kg intragastric once daily, day 19; read-out: TGI (%) H1975.
Excerpt: as §1, §2

The subject of experiment [7] is PC-9 tumor cells. Nature of the experiment: In vivo tumor growth inhibition, xenograft. Set-up: species or system Bab/c nude mice. Conditions: Mus musculus, po, 456 h; 25 mg/kg intragastric once daily, day 19; read-out: TGI (%) PC-9.
Excerpt: as §1, §2

Where [8] appears, read: A375, EGFR wt, BRAF V600E, read-out: GI50.
[9] abbreviates: HEL, Jak2 V167F, read-out: GI50.

Regarding `C=CC(=O)Nc1cc(Nc2cc(Nc3cc(OC)c(Cl)cc3Cl)ncn2)c(OC)cc1N(C)CCN(C)C` [Compound 136, N-(5-(6-(2,4-dichloro-5-methoxyl-phenylamino)-pyrimidin-4-ylamino)-2-((2-dimethylamino-ethyl)-methyl-amino)-4-methoxyl-phenyl)-acrylamide], the inhibition in vivo at 25 mg/kg in experiment [1] turned out to be 96.7%.

In the case of `C=CC(=O)Nc1cc(Nc2ncc(Cl)c(Nc3ccc(OCc4ccccn4)c(Cl)c3)n2)c(OC)cc1N(C)CCN(C)C` [Compound 19, N-(5-(5-chloro-4-(3-chloro-4-(pyridin-2-methoxyl)phenylamino)-pyrimidin-2-ylamino)-2-((2-(dimethylamino)ethyl)(methyl)amino)-4-methoxyl-phenyl)-acrylamide], the concentration for 50% growth inhibition (GI50) in experiment [2] (setting [8]), in experiment [3] and in experiment [4] (setting [9]) was greater than 1000 nM each time.

On to `C=CC(=O)Nc1cc(Nc2cc(Nc3ccc(OCC4CCOCC4)c(Cl)c3)ncn2)c(OC)cc1N(C)CCN(C)C` [Compound 216, N-(5-(6-(3-chloro-4-(tetrahydropyran-4-yl-methoxyl)-phenylamino)-pyrimidin-4-ylamino)-2-((2-dimethylaminoethyl)-methyl-amino)-4-methoxyphenyl)-acrylamide], for which the inhibition in vivo at 25 mg/kg in experiment [1] is 97.6%.

In the case of `C=CC(=O)Nc1cc(Nc2nccc(-c3cn(C)c4ccccc34)n2)c(OC)cc1N(C)CCN(C)C` [AZD9291, reference compound], the GI50 is 937 nM in experiment [5], greater than 1000 nM in experiment [2], greater than 1000 nM in experiment [3] and greater than 1000 nM in experiment [4]. The values for the inhibition in vivo at 25 mg/kg in experiment [6] and in experiment [7] were 98.4% and 97.2%, respectively.

On to `C=CC(=O)Nc1cc(Nc2nccc(-n3ccc4c(OCCOC)cccc43)n2)c(OC)cc1N(C)CCN(C)C` [Compound 205, N-(5-(4-(4-(2-methoxyl-ethoxyl)-1H-indol-1-yl)-pyrimidin-2-ylamino)-2-(2-(dimethylamino-ethyl)-methyl-amino)-4-methoxyl-phenyl)-acrylamide], for which the inhibition in vivo at 25 mg/kg in experiment [6] stood at 99.5%; in experiment [7] it was 96.5%.

With `C=CC(=O)Nc1cc(Nc2nccc(-n3cnc4ccccc43)n2)c(OC)cc1N(C)CCN(C)C` [Compound 106], the GI50 was 234 nM in experiment [5], greater than 1000 nM in experiment [2] (setting [8]), greater than 1000 nM in experiment [3] and greater than 1000 nM in experiment [4] (setting [9]).

Consider `C=CC(=O)Nc1cc(Nc2nccc(Nc3cccc(Cl)c3)n2)c(OC)cc1N(C)CCN(C)C` [Compound 2, N-(5-(4-(3-chloro-phenylamino)-pyrimidin-2-ylamino)-2-(2-(dimethylamino-ethyl)-methyl-amino)-4-methoxyl-phenyl)-acrylamide], for which the GI50 in experiment [5] is 234 nM; in experiment [2] (setting [8]), greater than 1000 nM; in experiment [3], greater than 1000 nM; in experiment [4] (setting [9]), greater than 1000 nM.

Consider `C=CC(=O)Nc1cc(Nc2cc(Nc3ccc(F)c(Cl)c3)ncn2)c(OC)cc1N(C)CCN(C)C` [Compound 140, N-(5-(6-(3-chloro-4-fluoro-phenylamino)-pyrimidin-4-ylamino)-2-((2-dimethylamino-ethyl)-methyl-amino)-4-methoxyl-phenyl)-acrylamide], for which, in experiment [5], the “inhibition effects” value is given as “moderate inhibition effects”. Also, the GI50 is 58.6 nM in experiment [5], greater than 1000 nM in experiment [2] (setting [8]), greater than 1000 nM in experiment [3] and greater than 1000 nM in experiment [4] (setting [9]). In addition, the inhibition in vivo at 25 mg/kg in experiment [6] stood at 98.4%; in experiment [7], 97.9%.

For `C=CC(=O)Nc1cc(Nc2ncnc(Nc3cccc(Br)c3)n2)c(OC)cc1N1CCC(N2CCCC2)CC1` [Compound 118], the “inhibition effects” value in experiment [5] was “moderate inhibition effects”. Further, the GI50 in experiment [5] was 148 nM; in experiment [2] (setting [8]) it was 465 nM; in experiment [4] (setting [9]), greater than 1000 nM.

`C=CC(=O)Nc1cc(Nc2nccc(Nc3ccc(OCc4ccccn4)c(Cl)c3)n2)c(OC)cc1N(C)CCN(C)C` [Compound 18, N-(5-(4-(3-chloro-4-(pyridin-2-methoxyl)phenylamino)pyrimidin-2-ylamino)-2-((2-(dimethylamino)ethyl)(methyl)amino)-4-methoxyl-phenyl)-acrylamide]: the GI50 was 937 nM in experiment [5], greater than 1000 nM in experiment [2] (setting [8]), greater than 1000 nM in experiment [3] and greater than 1000 nM in experiment [4] (setting [9]). In addition, the inhibition in vivo at 25 mg/kg in experiment [6] was 96.7%; in experiment [7], 98.3%.

With `C=CC(=O)Nc1cc(Nc2ncnc(Nc3cccc(F)c3)n2)c(OC)cc1N(C)CCN(C)C` [Compound 114, N-(5-(4-(3-fluoro-phenylamino)-[1,3,5]triazin-2-ylamino)-2-((2-dimethylamino-ethyl)-methyl-amino)-4-methoxyl-phenyl)-acrylamide], in experiment [5], the “inhibition effects” value was “moderate inhibition effects”. Moreover, the GI50 in experiment [5] was 96.6 nM; in experiment [2] (setting [8]), 465 nM; in experiment [3] it was greater than 1000 nM; in experiment [4] (setting [9]), greater than 1000 nM.

Turning to `C=CC(=O)Nc1cc(Nc2cc(Nc3ccc(F)c(Cl)c3)ncn2)c(OC)cc1N1CCN(C2CCN(C)CC2)CC1` [Compound 147, N-(5-(6-(3-chloro-4-fluoro-phenylamino)-pyrimidin-4-ylamino)-4-methoxyl-2-(4-(1-methylpiperidin-4-yl)-piperazin-1-yl)-phenyl)-acrylamide], the GI50 in experiment [5] was 46.8 nM; in experiment [2] (setting [8]), greater than 1000 nM; in experiment [3], greater than 1000 nM; in experiment [4] (setting [9]) it was greater than 1000 nM.
